System: Y537N mutant ERα receptor
Assay: PRα inhibition (ERα functional antagonism) cell assay in MCF7-ESR1 Y537N 682 CRISPR cells
Type: cell-based
Settings: Homo sapiens; MCF7-ESR1 Y537N 682 cells, 72 hours, n=14; read-out: Relative IC50 (nM), PRα inhibition
Text: The purpose of the following PRα inhibition (ERα functional antagonism) cell assay is to determine the antagonistic activity of a test compound against the Y537N mutant ERα receptor. An antagonist in this assay is expected to block the function of the ERα receptor.
Culture MCF7-ESR1 Y537N-682 (generated by CRISPR/Cas9 gene editing of ESR1 gene in MCF7 cells, clone #682) in DMEM media supplemented with 10% FBS and 1% penicillin/streptomycin antibiotics and plate the cells (prior to becoming 70% confluent) in 384-well flat-bottom plates at a density of 4,000 cells per well in DMEM phenol red free media 10% FBS (20 μL volume) (charcoal stripped). Incubate the cells overnight in a cell culture incubator (5% CO2, 95% relative humidity and 37° C.) and allow the cells to attach to the plate. The following day dose the cells with the test compound. Use an Echo 555 acoustic dispenser to prepare compound serial dilutions (1:3) in a range from 6 μM to 0.0003 μM. […]
The following day, wash the cells with PBS […] (2×20 μL) and incubate with secondary antibody (20 μL/well) (1:1000 dilution, Goat anti-rabbit IgM ALEXA FLUOR™ 488) in PBS 1% BSA for 105 minutes at room temperature. […] Scan the plates with ACUMEN EXPLORER™ [Laser-scanning fluorescence microplate cytometer manufactured by TTP LABTECH LTD] to measure progesterone receptor alpha. […]

IC50: 7.6 ± 4.8 nM
Compound: O=C(c1ccc(OCCN2CC(CF)C2)cc1)c1c(-c2ccc(C(F)(F)F)cc2F)cnc2cc(O)ccc12 [Example 1, (4-{2-[3-(Fluoromethyl)azetidin-1-yl]ethoxy}phenyl){3-[2-fluoro-4-(trifluoromethyl)phenyl]-7-hydroxyquinolin-4-yl}methanone]

Reference: patent publication US12128040B2, “Selective estrogen receptor degraders” (Eli Lilly and Company, priority 2018, dated 2024)
